According to patent US8513227B2, “Inhibition of inflammatory cytokine production with tanshinones” (The Feinstein Institute for Medical Research, priority 2006, dated 2013):

Experiments:
[1] = test system: sepsis-induced cardiovascular dysfunction; test: Sepsis-induced cardiovascular dysfunction in CLP rats (radiolabeled microspheres); format: in vivo, Sprague-Dawley rats; conditions: 20 h after CLP
Protocol: Animal models of endotoxemia and sepsis. This study was approved and performed in accordance with the guidelines for the care and use of laboratory animals at the Feinstein Institute for Medical Research, Manhasset, N.Y. Endotoxemia was induced in Balb/C mice (male, 7-8 weeks) by intraperitoneal injection of bacterial endotoxin (LPS, 15 mg/kg) as previously described (Chen et al. 2005; Wang et al. 1999; Wang et al. 2006). Sepsis was induced in male Balb/C mice (7-8 weeks, 20-25 g) or Sprague-Dawley rats (290-310 g) by cecal ligation and puncture (CLP) as previously described (Wang et al. 2006; Yang et al. 2002b). Herbal components were administered intraperitoneally into mice at indicated doses and time points, and mice were monitored for survival for up to two weeks. In parallel experiments, mice were euthanized to collect blood at 28 h (following two doses of herbal components at −0.5 and +24 h) after endotoxemia, and at 52 h (following two doses of herbal components at +24 and +48 h) after CLP.
Measurement of cardiac output. A radiolabeled microsphere technique was used to measure cardiac output at 20 h after CLP or sham operation as previously described (Yang et al. 2002b). Briefly, a bolus of ^141Ce-labeled microspheres (4.0 μCi, DuPont NEN, Boston, Mass.) was injected into the left ventricle, where it mixed uniformly with the oxygenated blood at the root of the aorta, and subsequently distributed via aortic blood flow to the capillary beds within each organ. The reference blood sample was withdrawn from the femoral arterial catheter (at a rate of 0.7 ml/min) with a pump (Harvard Apparatus, Holliston, Mass.), after which isotonic sodium chloride solution was infused manually to replace the volume of blood lost. At 20 h post CLP, animals were sacrificed to harvest various organs for measurement of radioactivity with an automatic gamma counter (1470 Wizard; Wallac, Gaithersburg, Md.). Cardiac output and organ blood flow were calculated according to the following equations: cardiac output=[(RBF×CT)/Cr]× 1/100 and organ blood flow=[(RBF×Ct)/Cr]× 1/100, where RBF is the reference blood sample withdrawal rate (0.7 ml/min), CT is counts per minute of total injected dose, Ct is counts per minute per gram of tissue, and Cr is counts per minute in the reference blood sample. Stroke volume (SV) and total peripheral resistance (TPR) were calculated as previously described (Yang et al. 2002b).

[2] = test system: HMGB1; test: Endotoxin-induced HMGB1 cytoplasmic translocation (immunocytochemistry, cell fractionation/western blot); format: cell-based, murine
Protocol: Immunocytochemistry and cell fractionation/western blot. At 16 h after LPS stimulation, cellular HMGB1 was immunostained with anti-HMGB1 polyclonal antibodies, and images were acquired using fluorescent microscope (Carl Zeiss Microimaging, Inc., Thomwood, N.Y.) as previously described (Chen et al. 2004; Rendon-Mitchell et al. 2003). Alternatively, localization of HMGB1 was examined by a cell fractionation/western blotting technique as previously described (Tang et al. 2006). Cell fractionation is based on differential lysis of plasma and nuclear membranes by nonionic detergent (NP-40). Briefly, after selective lysis of the plasma membrane in low salt buffer (10 mM HEPES, pH 7.9; 10 mM KCl; 0.1 mM EDTA; 0.1 mM EGTA; 1 mM DTT; 0.5 mM PMSF, 1% NP-40), the intact nuclei was collected by a quick centrifugation step (7,000 g, 1 min, 4° C.), leaving the cytoplasmic fraction in the supernatant. The nuclei pellet was resuspended in NP-40 high salt buffer (20 mM HEPES, pH 7.9; 0.4 M NaCl; 1 mM EDTA; 1 mM EGTA; 1 mM DTT; 1 mM PMSF, 1% NP-40), and briefly sonicated to generate the nuclear fraction. After fractionation, the protein content of different fractions was determined by the Bradford method, and each fraction was assayed for levels of various protein by western blotting analysis using primary antibodies specific for HMGB1, a cytoplasmic protein (βactin, Santa Cruz Biotechnology), and a nuclear protein (PCNA, BD Biosciences).

[3] = test system: TNF; test: LPS-mediated TNF secretion in RAW 264.7 macrophages (ELISA); format: cell-based, murine; conditions: macrophages stimulated with LPS >200 ng/ml
Protocol: Cell culture. Murine macrophage-like RAW 264.7 cells were obtained from the American Type Culture Collection (ATCC, Rockville, Md.), and primary peritoneal macrophages were isolated from Balb/C mice (male, 7-8 weeks, 20-25 grams) at 2-3 days after intraperitoneal injection of 2 ml thioglycollate broth (4%) as previously described (Chen et al. 2004; Rendon-Mitchell et al. 2003). Murine macrophages were pre-cultured in RPMI 1640 medium (Gibco BRL, Grand Island, N.Y.) supplemented with 10% fetal bovine serum (FBS) and 2 mmol/L glutamine. Human peripheral blood mononuclear cells (HuPBMCs) were isolated from the blood of healthy donors (Long Island Blood Bank, Melville, N.Y.) by density gradient centrifugation through Ficoll (Ficoll-Paque PLUS, Pharmacia, Piscataway, N.J.), and cultured in RPMI 1640 supplemented with 10% heat-inactivated human serum/0.2 mM L-glutamine as previously described (Rendon-Mitchell et al. 2003). LPS stimulation. […] The levels of TNF in the culture medium or serum were determined using commercial enzyme linked immunosorbent assay (ELISA) kits (Catalog no. MTA00, R & D Systems, Minneapolis, Minn.) with reference to standard curves of purified recombinant TNF at various dilutions as previously described (Chen et al. 2004; Rendon-Mitchell et al. 2003; Wang et al. 2006).

In the case of `Cc1c(S(=O)(=O)[O-])oc2c1C(=O)C(=O)c1c-2ccc2c1CCCC2(C)C.[Na+]` [TSNIIA-SS, tanshinone IIA sodium sulfonate], the heart rate ([1]; 15 mg/kg, CLP group 378.3±25.1, n=6, p<0.05) is reported as 334.1±25.8 beats/minutes, the “total peripheral vascular resistance” value ([1]; FIG. 8A) is reported as “dose-dependently reduced” and the cardiac stroke volume ([1]; FIG. 8B) is reported as “significantly increased”. For the same molecule, the cardiac output ([1]; FIG. 8C) was “significantly increased”, the “mean arterial blood pressure” value ([1]; CLP group 106.1±4.7, n=6, p>0.05) was 96.4±8.7 mm Hg and the “levels of HMGB1 in the cytoplasmic fractions after LPS” value ([2]; cell fractionation/western blot, FIG. 4B) was “dramatically reduced”. For the same molecule, the “effect on LPS-induced HMGB1 cytoplasmic translocation” value ([2]; immunostaining 16 h post LPS, 100 μM, FIG. 4A) was “almost completely abrogated”, the “effect on nuclear localization of HMGB1 in resting cells” value ([2]; resting cells, data not shown) was “did not affect” and the “inhibitory effects on TNF release at higher LPS” value [3] was “often lost”.
